From US9505786B2, “Substituted annulated triazines and use thereof” (BAYER INTELLECTUAL PROPERTY GMBH, priority 2012, dated 2016) come the findings set out here.

Assay [1] has as its target human phosphodiesterase 5 (PDE 5) (Homo sapiens (Human), UniProt O76074). Kind of assay: Inhibition of human phosphodiesterase 5 (PDE 5), SPA assay. The class given is biochemical. As to conditions: PDE 5 preparation from human platelets, [8-3H] cGMP substrate. An outline of the steps: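 Enzyme partially purified from human platelets by Mono Q chromatography; [8-3H]cGMP substrate (0.025 μCi per well), enzyme diluted to keep conversion below 70%. Compounds 4 μM to 0.0018 μM final, 60 min at room temperature in Tris pH 7.5/MgCl2/EDTA; yttrium SPA bead read-out; IC50 from concentration–inhibition plot.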

Another assay concerns aorta rings. Kind of assay: Vasorelaxant effect in vitro (phenylephrine-contracted aorta rings). As to conditions: Oryctolagus cuniculus, rabbit aorta rings, organ bath, phenylephrine contraction; read-out: IC50 (concentration needed to reduce the phenylephrine contraction by 50%). Here is the method:
B-1. Vasorelaxant Effect In Vitro
Rabbits are stunned by a blow to the neck and exsanguinated. The aorta is removed, freed from adhering tissue and divided into rings of a width of 1.5 mm. The rings are placed individually under an initial tension in 5 ml organ baths with Krebs-Henseleit solution which is at 37° C., is gassed with carbogen and has the following composition (in each case mM): sodium chloride: 119; potassium chloride: 4.8; calcium chloride dihydrate: 1; magnesium sulphate heptahydrate: 1.4; potassium dihydrogenphosphate: 1.2; sodium bicarbonate: 25; glucose: 10. The contractile force is determined with Statham UC2 cells, amplified and digitalized using A/D transducers (DAS-1802 HC, Keithley Instruments Munich), and recorded in parallel on linear recorders.
To produce a contraction, phenylephrine is added to the bath cumulatively in increasing concentration. After several control cycles, the substance to be investigated is added in each further run in increasing dosage in each case, and the height of the contraction achieved is compared with the height of the contraction reached in the last preceding run. This is used to calculate the concentration needed to reduce the magnitude of the control value by 50% (IC50 value). The standard administration volume is 5 μl; the DMSO content in the bath solution corresponds to 0.1%.

The test system of assay [2] is recombinant guanylate cyclase reporter cell line. Put plainly: Effect on a recombinant guanylate cyclase reporter cell line. The class given is cell-based. How it is done: B-2. Effect on a Recombinant Guanylate Cyclase Reporter Cell Line
The cellular activity of the compounds according to the invention is determined using a recombinant guanylate cyclase reporter cell line, as described in F. Wunder et al., Anal. Biochem. 339, 104-112 (2005).

Each structure is given as a SMILES string.

On to `Cc1cc(-c2nc(-c3nn(Cc4ccccc4F)c4ncccc34)nc3c2C(C)(C)C(=O)N3)n(C)n1` [Example 38, 4-(1,3-Dimethyl-1H-pyrazol-5-yl)-2-[1-(2-fluorobenzyl)-1H-pyrazolo[3,4-b]pyridin-3-yl]-5,5-dimethyl-5,7-dihydro-6H-pyrrolo[2,3-d]pyrimidin-6-one], for which the IC50 in assay [1] was 0.69 µM; in the assay with aorta rings, 0.091 µM. The “MEC (minimum effective concentration)” value in assay [2] came to 30 nM.

For the compound `Cc1ncc(-c2nc(-c3nn(Cc4ccccc4F)c4ncccc34)nc3c2C(C)(C)C(=O)N3)s1` [Example 35, 2-[1-(2-Fluorobenzyl)-1H-pyrazolo[3,4-b]pyridin-3-yl]-5,5-dimethyl-4-(2-methyl-1,3-thiazol-5-yl)-5,7-dihydro-6H-pyrrolo[2,3-d]pyrimidin-6-one], the IC50 in assay [1] turned out to be 0.12 µM; in the assay with aorta rings, 0.496 µM. Besides, the “MEC (minimum effective concentration)” value in assay [2] amounted to 30 nM.

As to `CC1(C)C(=O)Nc2nc(-c3nn(Cc4ccccc4F)c4ncc(F)cc34)nc(CNCC(F)(F)F)c21` [Example 57, 2-[5-Fluoro-1-(2-fluorobenzyl)-1H-pyrazolo[3,4-b]pyridin-3-yl]-5,5-dimethyl-4-{[(2,2,2-trifluoroethyl)amino]methyl}-5,7-dihydro-6H-pyrrolo[2,3-d]pyrimidin-6-one], the IC50 came out at 0.32 µM in assay [1] and 0.422 µM in the assay on aorta rings. Moreover, the “MEC (minimum effective concentration)” value in assay [2] is reported as 30 nM.

With `CC1(C)C(=O)Nc2nc(-c3nn(Cc4ccccc4F)c4ncccc34)nc(C#CC3CC3)c21` [Example 16, 4-(Cyclopropylethynyl)-2-[1-(2-fluorobenzyl)-1H-pyrazolo[3,4-b]pyridin-3-yl]-5,5-dimethyl-5,7-dihydro-6H-pyrrolo[2,3-d]pyrimidin-6-one], the IC50 in assay [1] is 0.41 µM; with aorta rings, 0.617 µM. The “MEC (minimum effective concentration)” value in assay [2] is reported as 30 nM.

As for `Cc1nc2c(cc1F)c(-c1ncc3c(n1)NC(=O)C3(C)C)nn2Cc1ccccc1F` [Example 20, 2-[5-Fluoro-1-(2-fluorobenzyl)-6-methyl-1H-pyrazolo[3,4-b]pyridin-3-yl]-5,5-dimethyl-5,7-dihydro-6H-pyrrolo[2,3-d]pyrimidin-6-one], the IC50 in assay [1] is 0.92 µM; in the assay with aorta rings, 0.345 µM. Further, in assay [2], the “MEC (minimum effective concentration)” value amounted to 100 nM.

For the compound `CCCc1nc(-c2nn(Cc3ccccc3F)c3ncccc23)nc2c1C(C)(C)C(=O)N2` [Example 32, 2-[1-(2-Fluorobenzyl)-1H-pyrazolo[3,4-b]pyridin-3-yl]-5,5-dimethyl-4-propyl-5,7-dihydro-6H-pyrrolo[2,3-d]pyrimidin-6-one], the results for the IC50 (in assay [1]; in the assay on aorta rings) were 0.11 µM and 0.244 µM, respectively. In assay [2], the “MEC (minimum effective concentration)” value is given as 100 nM.

For `Cc1cccc(Cn2nc(-c3nnc4c(n3)NC(=O)C4(C)C)c3cc(F)cnc32)c1F` [Example 12, 3-[5-Fluoro-1-(2-fluoro-3-methylbenzyl)-1H-pyrazolo[3,4-b]pyridin-3-yl]-7,7-dimethyl-5,7-dihydro-6H-pyrrolo[2,3-e][1,2,4]triazin-6-one], the IC50 in assay [1] stood at 0.58 µM; in the assay with aorta rings, 0.677 µM. For the same compound, in assay [2], the “MEC (minimum effective concentration)” value is 100 nM.

For `CC(C)n1ccc(-c2nc(-c3nn(Cc4ccccc4F)c4ncccc34)nc3c2C(C)(C)C(=O)N3)n1` [Example 39, 2-[1-(2-Fluorobenzyl)-1H-pyrazolo[3,4-b]pyridin-3-yl]-4-(1-isopropyl-1H-pyrazol-3-yl)-5,5-dimethyl-5,7-dihydro-6H-pyrrolo[2,3-d]pyrimidin-6-one], the IC50 in assay [1] was 0.24 µM; with aorta rings, 0.225 µM. For the same compound, the “MEC (minimum effective concentration)” value in assay [2] came out at 30 nM.

With `CC1(CC2CC2)C(=O)Nc2nc(-c3nn(Cc4ccccc4F)c4ncc(F)cc34)nnc21` (racemic) [Example 5, 7-(Cyclopropylmethyl)-3-[5-fluoro-1-(2-fluorobenzyl)-1H-pyrazolo[3,4-b]pyridin-3-yl]-7-methyl-5,7-dihydro-6H-pyrrolo[2,3-e][1,2,4]triazin-6-one (racemate)], the figures for the IC50 (in assay [1]; in the assay on aorta rings) were 0.26 µM and 0.137 µM, respectively. Moreover, the “MEC (minimum effective concentration)” value in assay [2] stood at 100 nM.

On to `CC1(C)C(=O)Nc2nc(-c3nn(Cc4ccccc4F)c4ncc(F)cc34)nc(CCC(F)(F)F)c21` [Example 58, 2-[5-Fluoro-1-(2-fluorobenzyl)-1H-pyrazolo[3,4-b]pyridin-3-yl]-5,5-dimethyl-4-(3,3,3-trifluoropropyl)-5,7-dihydro-6H-pyrrolo[2,3-d]pyrimidin-6-one], for which the IC50 in assay [1] came out at 0.66 µM; in the assay with aorta rings, 9.8 µM. In assay [2], the “MEC (minimum effective concentration)” value stood at 300 nM.

For `NC1(C(F)(F)F)C(=O)Nc2nc(-c3nn(Cc4ccccc4F)c4ncccc34)ncc21` (stereo not drawn) [Example 1, 5-Amino-2-[1-(2-fluorobenzyl)-1H-pyrazolo[3,4-b]pyridin-3-yl]-5-(trifluoromethyl)-5,7-dihydro-6H-pyrrolo[2,3-d]pyrimidin-6-one], the IC50 in assay [1] amounted to 1.2 µM; with aorta rings, 0.037 µM. For the same compound, the “MEC (minimum effective concentration)” value in assay [2] is recorded as 30 nM.

As to `O=C1Nc2nc(-c3nn(Cc4ccccc4F)c4ncccc34)ncc2C1(O)C(F)(F)C(F)(F)F` (stereo not drawn) [Example 3, 2-[1-(2-Fluorobenzyl)-1H-pyrazolo[3,4-b]pyridin-3-yl]-5-hydroxy-5-(pentafluoroethyl)-5,7-dihydro-6H-pyrrolo[2,3-d]pyrimidin-6-one], the IC50 came out at 2.4 µM in assay [1] and 0.266 µM in the assay on aorta rings. For the same compound, in assay [2], the “MEC (minimum effective concentration)” value stood at 30 nM.

For the compound `Cc1ccc(Cn2nc(-c3nnc4c(n3)NC(=O)C4(C)C)c3cc(F)cnc32)c(F)c1` [Example 10, 3-[5-Fluoro-1-(2-fluoro-4-methylbenzyl)-1H-pyrazolo[3,4-b]pyridin-3-yl]-7,7-dimethyl-5,7-dihydro-6H-pyrrolo[2,3-e][1,2,4]triazin-6-one], the IC50 in assay [1] turned out to be 0.015 µM; in the assay on aorta rings it was 0.276 µM. Besides, the “MEC (minimum effective concentration)” value in assay [2] worked out at 300 nM.

Consider `CC1(C)C(=O)Nc2nc(-c3nn(Cc4ccccc4F)c4ncccc34)nc(/C=C\C3CC3)c21` [Example 18, 4-[(Z)-2-Cyclopropylvinyl]-2-[1-(2-fluorobenzyl)-1H-pyrazolo[3,4-b]pyridin-3-yl]-5,5-dimethyl-5,7-dihydro-6H-pyrrolo[2,3-d]pyrimidin-6-one], for which the figures for the IC50 (in assay [1]; with aorta rings) were 0.15 µM and 0.836 µM, respectively. Further, the “MEC (minimum effective concentration)” value in assay [2] came out at 100 nM.

For `CC1(C)C(=O)Nc2nc(-c3nn(Cc4ccccc4F)c4ncc(F)cc34)nc(CN)c21.O=CO` [Example 44, 4-(Aminomethyl)-2-[5-fluoro-1-(2-fluorobenzyl)-1H-pyrazolo[3,4-b]pyridin-3-yl]-5,5-dimethyl-5,7-dihydro-6H-pyrrolo[2,3-d]pyrimidin-6-one formate], the IC50 in assay [1] was 0.87 µM; in the assay with aorta rings, 0.501 µM. In addition, in assay [2], the “MEC (minimum effective concentration)” value stood at 30 nM.

Turning to `O=C1Nc2nc(-c3nn(Cc4ccccc4F)c4ncc(F)cc34)nnc2C12CCCC2` [Example 9, 3′-[5-Fluoro-1-(2-fluorobenzyl)-1H-pyrazolo[3,4-b]pyridin-3-yl]spiro[cyclopentane-1,7′-pyrrolo[2,3-e][1,2,4]triazin]-6′(5′H)-one], the IC50 in assay [1] was determined as 2 µM; in the assay with aorta rings, 0.198 µM. For the same compound, in assay [2], the “MEC (minimum effective concentration)” value was 30 nM.

For the compound `CCC1(C)C(=O)Nc2nc(-c3nn(Cc4ccccc4F)c4ncc(F)cc34)nnc21` (racemic) [Example 7, 7-Ethyl-3-[5-fluoro-1-(2-fluorobenzyl)-1H-pyrazolo[3,4-b]pyridin-3-yl]-7-methyl-5,7-dihydro-6H-pyrrolo[2,3-e][1,2,4]triazin-6-one (racemate)], the IC50 in assay [1] stood at 0.34 µM; in the assay with aorta rings, 0.041 µM. Also, in assay [2], the “MEC (minimum effective concentration)” value came out at 30 nM.

Take `CCOCCC1(C)C(=O)Nc2nc(-c3nn(Cc4ccccc4F)c4ncc(F)cc34)nnc21` (stereo not drawn) [Example 13, 7-(2-Ethoxyethyl)-3-[5-fluoro-1-(2-fluorobenzyl)-1H-pyrazolo[3,4-b]pyridin-3-yl]-7-methyl-5,7-dihydro-6H-pyrrolo[2,3-e][1,2,4]triazin-6-one]: the IC50 worked out at 0.66 µM in assay [1] and 1.59 µM in the assay on aorta rings. Also, in assay [2], the “MEC (minimum effective concentration)” value came to 100 nM.

For `C=CCC1(C)C(=O)Nc2nc(-c3nn(Cc4ccccc4F)c4ncccc34)nnc21` (racemic) [Example 28, (rac) 7-Allyl-3-[1-(2-fluorobenzyl)-1H-pyrazolo[3,4-b]pyridin-3-yl]-7-methyl-5,7-dihydro-6H-pyrrolo[2,3-e][1,2,4]triazin-6-one], the IC50 in assay [1] was 0.31 µM; with aorta rings, 0.209 µM. Also, the “MEC (minimum effective concentration)” value in assay [2] worked out at 30 nM.
